{
  "source": "ChEMBL document CHEMBL1201862",
  "about": "“PubChem BioAssay data set” (2004)",
  "experiment_in_all_cases": "growth of human tumour cells (NCI), 48 h",
  "key": {"[1]": {"tested_on": "MDA-MB-231"}, "[2]": {"tested_on": "HOP-92"}, "[3]": {"tested_on": "UACC-62"}, "[4]": {"tested_on": "SK-MEL-2"}, "[5]": {"tested_on": "OVCAR-5"}, "[6]": {"tested_on": "COLO 205"}, "[7]": {"tested_on": "IGROV-1"}, "[8]": {"tested_on": "NCI-H522"}, "[9]": {"tested_on": "Hs-578T"}, "[10]": {"tested_on": "NCI/ADR-RES"}, "[11]": {"tested_on": "NCI-H226"}, "[12]": {"tested_on": "SK-MEL-5"}, "[13]": {"tested_on": "EKVX"}, "[14]": {"tested_on": "SF-539"}, "[15]": {"tested_on": "A549"}, "[16]": {"tested_on": "HT-29"}, "[17]": {"tested_on": "T47D"}, "[18]": {"tested_on": "LOX IMVI"}, "[19]": {"tested_on": "SN12C"}, "[20]": {"tested_on": "RXF 393"}},
  "note": "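Growth conditions: 96-well plates. Treatment: test compound, 48 hours, 5 concentrations. Analysis: linear interpolation between bracketing concentrations; unreached endpoints set to highest concentration. The concentration for 50% growth inhibition is given as GI50.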 Activity calls are given as the source filed them. Cut-off read from the data, not from the text of the source: active = GI50 up to about 1.1 µM and inactive = higher.",
  "data": [
    {"smiles": "Cc1ccc(C(=O)N(C2CCCCC2)C2CCCCC2)cc1/N=N/N(C)C", "values": [
      {"measurement": "GI50", "setting": "[1]", "value": "12.6 µM (inactive)"},
      {"measurement": "GI50", "setting": "[2]", "value": "11 µM (inactive)"},
      {"measurement": "GI50", "setting": "[3]", "value": "7.78 µM (inactive)"},
      {"measurement": "GI50", "setting": "[4]", "value": "2.76 µM (inactive)"},
      {"measurement": "GI50", "setting": "[5]", "value": "19 µM (inactive)"},
      {"measurement": "GI50", "setting": "[6]", "value": "17.7 µM (inactive)"},
      {"measurement": "GI50", "setting": "[7]", "value": "15.6 µM (inactive)"},
      {"measurement": "GI50", "setting": "[8]", "value": "6.01 µM (inactive)"},
      {"measurement": "GI50", "setting": "[9]", "value": "21.3 µM (inactive)"},
      {"measurement": "GI50", "setting": "[10]", "value": "19.5 µM (inactive)"},
      {"measurement": "GI50", "setting": "[11]", "value": "19.7 µM (inactive)"},
      {"measurement": "GI50", "setting": "[12]", "value": "14.3 µM (inactive)"},
      {"measurement": "GI50", "setting": "[13]", "value": "16.3 µM (inactive)"},
      {"measurement": "GI50", "setting": "[14]", "value": "19.5 µM (inactive)"},
      {"measurement": "GI50", "setting": "[15]", "value": "13.7 µM (inactive)"},
      {"measurement": "GI50", "setting": "[16]", "value": "6.08 µM (inactive)"},
      {"measurement": "GI50", "setting": "[17]", "value": "18 µM (inactive)"},
      {"measurement": "GI50", "setting": "[18]", "value": "15.8 µM (inactive)"},
      {"measurement": "GI50", "setting": "[19]", "value": "15.4 µM (inactive)"}
    ]},
    {"smiles": "C/C(=N\\Nc1ccc([N+](=O)[O-])cc1[N+](=O)[O-])c1sc(-n2nc(-c3ccccc3)cc2-c2ccccc2)nc1C", "values": [
      {"measurement": "GI50", "setting": "[1]", "value": "44.4 µM (inactive)"},
      {"measurement": "GI50", "setting": "[2]", "value": "23.9 µM (inactive)"},
      {"measurement": "GI50", "setting": "[3]", "value": "53.6 µM (inactive)"},
      {"measurement": "GI50", "setting": "[5]", "value": "> 100 µM (inactive)"},
      {"measurement": "GI50", "setting": "[6]", "value": "24.8 µM (inactive)"},
      {"measurement": "GI50", "setting": "[7]", "value": "0.897 µM (active)"},
      {"measurement": "GI50", "setting": "[8]", "value": "22 µM (inactive)"},
      {"measurement": "GI50", "setting": "[9]", "value": "78.9 µM (inactive)"},
      {"measurement": "GI50", "setting": "[10]", "value": "21.9 µM (inactive)"},
      {"measurement": "GI50", "setting": "[11]", "value": "34.1 µM (inactive)"},
      {"measurement": "GI50", "setting": "[12]", "value": "34.4 µM (inactive)"},
      {"measurement": "GI50", "setting": "[13]", "value": "26.5 µM (inactive)"},
      {"measurement": "GI50", "setting": "[14]", "value": "46.8 µM (inactive)"},
      {"measurement": "GI50", "setting": "[16]", "value": "17 µM (inactive)"},
      {"measurement": "GI50", "setting": "[17]", "value": "13.8 µM (inactive)"},
      {"measurement": "GI50", "setting": "[18]", "value": "11.9 µM (inactive)"},
      {"measurement": "GI50", "setting": "[19]", "value": "50.1 µM (inactive)"}
    ]},
    {"smiles": "N#CN1C2CCC1CC(=O)C2", "values": [
      {"measurement": "GI50", "setting": "[1]", "value": "> 100 µM (inactive)"},
      {"measurement": "GI50", "setting": "[2]", "value": "> 100 µM (inactive)"},
      {"measurement": "GI50", "setting": "[3]", "value": "> 100 µM (inactive)"},
      {"measurement": "GI50", "setting": "[4]", "value": "> 100 µM (inactive)"},
      {"measurement": "GI50", "setting": "[5]", "value": "> 100 µM (inactive)"},
      {"measurement": "GI50", "setting": "[6]", "value": "> 100 µM (inactive)"},
      {"measurement": "GI50", "setting": "[7]", "value": "> 100 µM (inactive)"},
      {"measurement": "GI50", "setting": "[8]", "value": "> 100 µM (inactive)"},
      {"measurement": "GI50", "setting": "[9]", "value": "> 100 µM (inactive)"},
      {"measurement": "GI50", "setting": "[10]", "value": "> 100 µM (inactive)"},
      {"measurement": "GI50", "setting": "[11]", "value": "> 10 µM (inactive)"},
      {"measurement": "GI50", "setting": "[12]", "value": "> 100 µM (inactive)"},
      {"measurement": "GI50", "setting": "[13]", "value": "> 100 µM (inactive)"},
      {"measurement": "GI50", "setting": "[14]", "value": "> 100 µM (inactive)"},
      {"measurement": "GI50", "setting": "[15]", "value": "> 100 µM (inactive)"},
      {"measurement": "GI50", "setting": "[16]", "value": "> 100 µM (inactive)"},
      {"measurement": "GI50", "setting": "[17]", "value": "> 100 µM (inactive)"},
      {"measurement": "GI50", "setting": "[18]", "value": "> 100 µM (inactive)"},
      {"measurement": "GI50", "setting": "[19]", "value": "> 100 µM (inactive)"}
    ]},
    {"smiles": "OCC1OC(c2cccc3cc(O)c(O)cc23)CC1O", "note": "(stereo not drawn)", "values": [
      {"measurement": "GI50", "setting": "[1]", "value": "> 100 µM (inactive)"},
      {"measurement": "GI50", "setting": "[2]", "value": "> 100 µM (inactive)"},
      {"measurement": "GI50", "setting": "[3]", "value": "> 100 µM (inactive)"},
      {"measurement": "GI50", "setting": "[4]", "value": "> 100 µM (inactive)"},
      {"measurement": "GI50", "setting": "[5]", "value": "> 100 µM (inactive)"},
      {"measurement": "GI50", "setting": "[7]", "value": "64 µM (inactive)"},
      {"measurement": "GI50", "setting": "[8]", "value": "> 100 µM (inactive)"},
      {"measurement": "GI50", "setting": "[9]", "value": "> 100 µM (inactive)"},
      {"measurement": "GI50", "setting": "[10]", "value": "> 100 µM (inactive)"},
      {"measurement": "GI50", "setting": "[11]", "value": "66.7 µM (inactive)"},
      {"measurement": "GI50", "setting": "[13]", "value": "45.4 µM (inactive)"},
      {"measurement": "GI50", "setting": "[14]", "value": "> 100 µM (inactive)"},
      {"measurement": "GI50", "setting": "[15]", "value": "> 100 µM (inactive)"},
      {"measurement": "GI50", "setting": "[16]", "value": "> 100 µM (inactive)"},
      {"measurement": "GI50", "setting": "[17]", "value": "> 100 µM (inactive)"},
      {"measurement": "GI50", "setting": "[18]", "value": "> 100 µM (inactive)"},
      {"measurement": "GI50", "setting": "[19]", "value": "> 100 µM (inactive)"}
    ]},
    {"smiles": "NCCN1CC2CCC(CC2)C1", "values": [
      {"measurement": "GI50", "setting": "[1]", "value": "> 10 µM (inactive)"},
      {"measurement": "GI50", "setting": "[3]", "value": "> 10 µM (inactive)"},
      {"measurement": "GI50", "setting": "[4]", "value": "> 10 µM (inactive)"},
      {"measurement": "GI50", "setting": "[6]", "value": "> 10 µM (inactive)"},
      {"measurement": "GI50", "setting": "[7]", "value": "> 10 µM (inactive)"},
      {"measurement": "GI50", "setting": "[8]", "value": "> 10 µM (inactive)"},
      {"measurement": "GI50", "setting": "[9]", "value": "> 10 µM (inactive)"},
      {"measurement": "GI50", "setting": "[20]", "value": "> 10 µM (inactive)"},
      {"measurement": "GI50", "setting": "[10]", "value": "> 10 µM (inactive)"},
      {"measurement": "GI50", "setting": "[11]", "value": "> 10 µM (inactive)"},
      {"measurement": "GI50", "setting": "[12]", "value": "> 10 µM (inactive)"},
      {"measurement": "GI50", "setting": "[13]", "value": "> 10 µM (inactive)"},
      {"measurement": "GI50", "setting": "[14]", "value": "> 10 µM (inactive)"},
      {"measurement": "GI50", "setting": "[15]", "value": "> 10 µM (inactive)"},
      {"measurement": "GI50", "setting": "[16]", "value": "> 10 µM (inactive)"},
      {"measurement": "GI50", "setting": "[17]", "value": "> 10 µM (inactive)"},
      {"measurement": "GI50", "setting": "[18]", "value": "> 10 µM (inactive)"},
      {"measurement": "GI50", "setting": "[19]", "value": "> 10 µM (inactive)"}
    ]},
    {"smiles": "O=c1[nH][nH]c(=O)n1CCCCCCn1c(=O)[nH][nH]c1=O", "values": [
      {"measurement": "GI50", "setting": "[1]", "value": "> 100 µM (inactive)"},
      {"measurement": "GI50", "setting": "[3]", "value": "> 100 µM (inactive)"},
      {"measurement": "GI50", "setting": "[4]", "value": "> 100 µM (inactive)"},
      {"measurement": "GI50", "setting": "[5]", "value": "> 100 µM (inactive)"},
      {"measurement": "GI50", "setting": "[6]", "value": "> 100 µM (inactive)"},
      {"measurement": "GI50", "setting": "[8]", "value": "> 100 µM (inactive)"},
      {"measurement": "GI50", "setting": "[9]", "value": "> 100 µM (inactive)"},
      {"measurement": "GI50", "setting": "[20]", "value": "> 100 µM (inactive)"},
      {"measurement": "GI50", "setting": "[10]", "value": "> 100 µM (inactive)"},
      {"measurement": "GI50", "setting": "[11]", "value": "> 100 µM (inactive)"},
      {"measurement": "GI50", "setting": "[12]", "value": "> 100 µM (inactive)"},
      {"measurement": "GI50", "setting": "[13]", "value": "> 100 µM (inactive)"},
      {"measurement": "GI50", "setting": "[14]", "value": "> 100 µM (inactive)"},
      {"measurement": "GI50", "setting": "[15]", "value": "> 100 µM (inactive)"},
      {"measurement": "GI50", "setting": "[16]", "value": "> 100 µM (inactive)"},
      {"measurement": "GI50", "setting": "[17]", "value": "> 100 µM (inactive)"},
      {"measurement": "GI50", "setting": "[18]", "value": "> 100 µM (inactive)"},
      {"measurement": "GI50", "setting": "[19]", "value": "> 100 µM (inactive)"}
    ]}
  ]
}
